Source: patent publication US20030027819A1, “Beta-sheet mimetics and methods relating to the use thereof” (Molecumetics Ltd., priority 1996, published 2003)
pIC50, pKi: −log10 of the molar value. Where “and” joins values, the source holds several entries; their conditions need not be identical. Equal entries are not always repeated. Where two headings read alike, the source gives them in different places.

How the values were obtained:
[1] = Pharmacodynamic and pharmacokinetic study in rats; format: in vivo, male Sprague Dawley rats; settings: rat; for half-life: read-out: terminal halflife (converted)
Method: Specifically, a pharmacodynamic and pharmacokinetic study of structure (20b) was conducted in male Sprague Dawley rats. […] Groups of rats (n ═3 or 4) were sacrificed and exsanguinated at 0.25, 0.5, 1, 2, 4 and 8 hours following dosing. Efficacy parameters, aPTT and TT, were measured for each plasma sample.

[2] = molecular target: T1, urokinase (Homo sapiens, UniProt P00749); assay: Urokinase inhibition assay (Ki, Example 5); format: biochemical
[3] = molecular target: T2, Tissue Plasminogen Activator (t-PA) (Homo sapiens, UniProt P00750); assay: t-PA inhibition assay (Ki, Example 5); format: biochemical
T2 sequence (P00750 36-562): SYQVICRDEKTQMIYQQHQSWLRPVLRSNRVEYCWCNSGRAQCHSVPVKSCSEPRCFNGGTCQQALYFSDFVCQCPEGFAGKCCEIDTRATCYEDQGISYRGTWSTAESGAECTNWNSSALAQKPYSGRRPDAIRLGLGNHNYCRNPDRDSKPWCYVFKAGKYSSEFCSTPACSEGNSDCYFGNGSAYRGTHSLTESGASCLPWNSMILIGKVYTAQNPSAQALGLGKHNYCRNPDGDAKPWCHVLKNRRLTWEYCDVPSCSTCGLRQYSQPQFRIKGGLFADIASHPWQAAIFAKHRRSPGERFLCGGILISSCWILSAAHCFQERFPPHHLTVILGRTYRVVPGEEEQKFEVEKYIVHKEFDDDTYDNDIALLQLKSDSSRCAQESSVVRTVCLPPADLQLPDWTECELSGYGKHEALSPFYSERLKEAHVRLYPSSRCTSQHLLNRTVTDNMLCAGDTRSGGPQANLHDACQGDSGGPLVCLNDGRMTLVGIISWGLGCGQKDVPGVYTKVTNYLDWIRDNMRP
Method: (§1) The reaction progress curves were recorded by reading the plates, typically 60 times with 30 second to 2 minute intervals. Initial rates were determined by unweighted nonlinear least-squares fitting to a first order reaction in GraFit (Erithacus Software Limited, London, England).

[4] = molecular target: factor X (Bos taurus, UniProt P00743); assay: Factor X inhibition assay (Ki, Example 5), bovine plasma enzyme; format: biochemical; settings: bovine plasma enzyme (Example 5 protocol)
Chain of factor X (P00743 234-492 limits assumed): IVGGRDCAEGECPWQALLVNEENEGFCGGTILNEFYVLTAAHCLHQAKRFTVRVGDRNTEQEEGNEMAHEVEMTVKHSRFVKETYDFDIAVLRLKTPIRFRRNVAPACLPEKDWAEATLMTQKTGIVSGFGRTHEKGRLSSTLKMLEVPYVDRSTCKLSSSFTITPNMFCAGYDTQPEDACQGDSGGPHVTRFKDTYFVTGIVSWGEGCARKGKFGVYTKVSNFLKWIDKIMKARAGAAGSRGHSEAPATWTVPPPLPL
Chain of factor X (P00743 41-180 limits assumed): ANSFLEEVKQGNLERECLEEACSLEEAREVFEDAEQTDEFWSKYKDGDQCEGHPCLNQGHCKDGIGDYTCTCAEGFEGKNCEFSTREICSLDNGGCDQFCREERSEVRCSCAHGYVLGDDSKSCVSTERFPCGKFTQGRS
Method: as §1, with “The hydrolysis of chromogenic substrates was monitored at 405 nm. The” for “The”
Buffer and substrate were the same as used for thrombin assay. A 1:100 dilution was made in the pH8.0 tris buffer to serve as the first point. Seven more dilutions from the first were made for the assay.

[5] = molecular target: factor VII (Homo sapiens, UniProt P08709); assay: Factor VII inhibition assay (Ki, Example 5); format: biochemical
Chain of factor VII (P08709 213-466 limits assumed): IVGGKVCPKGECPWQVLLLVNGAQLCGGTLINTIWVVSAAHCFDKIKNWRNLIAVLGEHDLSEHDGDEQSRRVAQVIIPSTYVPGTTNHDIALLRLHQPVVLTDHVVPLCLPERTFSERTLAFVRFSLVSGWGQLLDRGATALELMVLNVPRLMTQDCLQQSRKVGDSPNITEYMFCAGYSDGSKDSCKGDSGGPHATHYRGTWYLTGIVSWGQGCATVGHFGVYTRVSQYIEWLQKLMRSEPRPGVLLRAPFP
Chain of factor VII (P08709 61-212 limits assumed): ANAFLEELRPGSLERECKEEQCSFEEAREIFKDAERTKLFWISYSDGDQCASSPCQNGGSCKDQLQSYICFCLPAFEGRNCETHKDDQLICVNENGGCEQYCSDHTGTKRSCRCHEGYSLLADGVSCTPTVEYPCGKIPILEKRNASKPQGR
Chain of factor VII (P13726 33-295 partner): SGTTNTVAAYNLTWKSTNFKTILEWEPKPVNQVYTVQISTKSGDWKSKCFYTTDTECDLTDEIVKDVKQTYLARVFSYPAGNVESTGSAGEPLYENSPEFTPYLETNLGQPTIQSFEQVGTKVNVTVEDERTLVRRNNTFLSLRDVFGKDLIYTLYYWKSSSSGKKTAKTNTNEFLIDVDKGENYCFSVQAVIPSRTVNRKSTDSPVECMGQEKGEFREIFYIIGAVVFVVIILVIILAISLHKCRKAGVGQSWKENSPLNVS
Method: as §1
From this concentration point seven more sequential dilutions were made for the assay.

[6] = molecular target: Factor XI (Homo sapiens, UniProt P03951); assay: Factor XI inhibition assay (Ki, Example 8); format: biochemical
Chain of Factor XI (P03951 388-625 limits assumed): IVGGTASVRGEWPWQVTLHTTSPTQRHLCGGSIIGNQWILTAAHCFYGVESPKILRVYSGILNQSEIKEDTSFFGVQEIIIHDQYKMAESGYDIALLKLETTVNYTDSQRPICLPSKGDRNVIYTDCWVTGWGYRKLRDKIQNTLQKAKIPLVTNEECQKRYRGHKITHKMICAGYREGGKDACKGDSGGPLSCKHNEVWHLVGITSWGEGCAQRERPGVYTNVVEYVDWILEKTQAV
Chain of Factor XI (P03951 19-387 limits assumed): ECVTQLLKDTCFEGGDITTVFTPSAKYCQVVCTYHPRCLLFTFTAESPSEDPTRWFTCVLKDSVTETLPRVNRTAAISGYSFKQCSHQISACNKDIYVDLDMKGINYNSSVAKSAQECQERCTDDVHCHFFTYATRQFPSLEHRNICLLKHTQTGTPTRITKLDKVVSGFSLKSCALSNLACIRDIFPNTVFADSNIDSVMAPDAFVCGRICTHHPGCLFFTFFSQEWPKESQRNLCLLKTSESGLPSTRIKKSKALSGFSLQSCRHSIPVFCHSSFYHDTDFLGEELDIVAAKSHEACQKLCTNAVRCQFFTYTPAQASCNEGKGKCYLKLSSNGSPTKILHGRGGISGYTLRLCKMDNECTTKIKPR
Method: as §1
Factor XI. The same buffer was utilized in this assay as in the thrombin assay. […] From this 100 μM solution, seven serial 1:5 dilutions were made in buffer for assay.

[7] = molecular target: T3, Plasmin (Bos taurus, UniProt P06868); assay: Plasmin inhibition assay (Ki, Example 5); format: biochemical, bovine
T3 sequence (P06868 584-812 limits assumed): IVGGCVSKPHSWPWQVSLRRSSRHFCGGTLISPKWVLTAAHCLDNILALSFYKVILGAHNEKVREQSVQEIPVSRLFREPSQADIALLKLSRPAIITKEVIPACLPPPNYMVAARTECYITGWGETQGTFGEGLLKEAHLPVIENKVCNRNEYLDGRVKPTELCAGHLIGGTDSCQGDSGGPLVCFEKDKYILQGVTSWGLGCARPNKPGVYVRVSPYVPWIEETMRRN
T3 sequence (P06868 104-583 limits assumed): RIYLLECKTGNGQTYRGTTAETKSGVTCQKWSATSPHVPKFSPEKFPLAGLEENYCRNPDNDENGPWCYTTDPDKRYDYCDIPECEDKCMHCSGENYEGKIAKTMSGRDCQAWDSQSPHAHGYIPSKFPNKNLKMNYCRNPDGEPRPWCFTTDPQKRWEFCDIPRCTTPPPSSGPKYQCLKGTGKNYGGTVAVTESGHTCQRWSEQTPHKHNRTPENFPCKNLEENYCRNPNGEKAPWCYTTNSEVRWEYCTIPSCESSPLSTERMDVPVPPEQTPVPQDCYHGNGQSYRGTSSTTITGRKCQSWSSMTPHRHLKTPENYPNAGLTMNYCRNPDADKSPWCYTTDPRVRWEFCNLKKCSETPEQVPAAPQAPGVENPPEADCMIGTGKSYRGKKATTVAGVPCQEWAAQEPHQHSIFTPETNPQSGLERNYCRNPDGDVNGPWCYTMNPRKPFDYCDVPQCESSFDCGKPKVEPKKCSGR
Method: as §1

[8] = molecular target: Activated Protein C (aPC) (Homo sapiens, UniProt P04070); assay: Activated Protein C inhibition assay (Ki, Example 5); format: biochemical
Chain of Activated Protein C (aPC) (P04070 212-461 limits assumed): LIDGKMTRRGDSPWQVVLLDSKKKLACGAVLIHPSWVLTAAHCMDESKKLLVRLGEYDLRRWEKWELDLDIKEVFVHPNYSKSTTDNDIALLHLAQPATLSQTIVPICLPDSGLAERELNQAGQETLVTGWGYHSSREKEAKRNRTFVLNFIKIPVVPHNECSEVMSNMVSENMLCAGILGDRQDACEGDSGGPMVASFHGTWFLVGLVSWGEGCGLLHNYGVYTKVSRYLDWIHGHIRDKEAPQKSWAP
Chain of Activated Protein C (aPC) (P04070 43-197 limits assumed): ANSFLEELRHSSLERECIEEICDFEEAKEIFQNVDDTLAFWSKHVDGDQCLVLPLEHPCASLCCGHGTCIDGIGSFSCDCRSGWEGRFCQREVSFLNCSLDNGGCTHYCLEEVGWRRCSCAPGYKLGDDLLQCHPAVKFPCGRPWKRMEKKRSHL

[9] = molecular target: tryptase (Homo sapiens, UniProt Q15661); assay: Tryptase inhibition assay (Ki, Example 5); format: biochemical
Chain of tryptase (Q15661 31-275): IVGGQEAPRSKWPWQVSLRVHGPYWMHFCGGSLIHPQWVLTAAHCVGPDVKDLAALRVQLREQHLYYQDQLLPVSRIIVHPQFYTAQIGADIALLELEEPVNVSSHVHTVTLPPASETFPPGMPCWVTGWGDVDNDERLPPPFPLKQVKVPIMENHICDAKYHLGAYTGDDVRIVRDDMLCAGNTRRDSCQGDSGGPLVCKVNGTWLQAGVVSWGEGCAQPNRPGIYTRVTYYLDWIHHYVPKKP

[10] = molecular target: T4, trypsin (Bos taurus, UniProt P00760); assay: Trypsin inhibition assay (Ki, Example 5); format: biochemical, bovine
T4 sequence (P00760 24-246): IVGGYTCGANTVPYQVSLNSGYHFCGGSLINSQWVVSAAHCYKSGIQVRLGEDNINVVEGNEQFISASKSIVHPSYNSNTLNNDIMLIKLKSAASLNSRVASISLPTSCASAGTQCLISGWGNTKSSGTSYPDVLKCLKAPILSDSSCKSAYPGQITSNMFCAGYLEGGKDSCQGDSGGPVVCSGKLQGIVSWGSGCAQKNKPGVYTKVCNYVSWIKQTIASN
Method: as §1

[11] = molecular target: thrombin (Bos taurus, UniProt P00735); assay: Thrombin inhibition assay (Ki, Example 5); format: biochemical, bovine; set-up: thrombin; bovine plasma; 0.66; from tissue; host or cells: bovine plasma
Method: as §1
Seven sequential dilutions were made from the first point for the assay.

[12] = molecular target: T1, urokinase; assay: Urokinase inhibition assay (IC50, Example 4); format: biochemical; set-up: purchased Sigma
Method: (§2) This solution (2.05 mM) served as the stock solution for all the inhibition assays. The hydrolysis of chromogenic substrates was monitored at 405 nm. The reaction progress curves were recorded by reading the plates typically 90 times with 30 seconds to 2 minute intervals. The initial rate were determined by unweighted nonlinear least-squares fitting to a first order reaction in GraFit.
In the urokinase assay, buffer was pH 8.8 0.05 M Tris and 0.05 M NaCl in deionized water. S-2444 (from Sigma), pyroGlu-Gly-Arg-pNA at 0.5 mM in water was utilized as substrate. The same dilution procedure was used as for Factor VII and Factor X. Assay protocol is the same as for thrombin except 18.5 nM of human urokinase (from Sigma) was utilized.

[13] = molecular target: T3, Plasmin; assay: Plasmin inhibition assay (IC50, Example 4); format: biochemical
Method: as §2
For dilutions of structure (13b) (see urokinase assay).

[14] = molecular target: T5, bovine trypsin (Bos taurus, UniProt P00760); assay: Trypsin inhibition assay (IC50, Example 4); format: biochemical
T5 construct: purchased Sigma
T5 sequence (P00760 24-246): T4 sequence (P00760 24-246)
Method: as §2
In the trypsin assay, pH 7.8 Tris (0.10 M Tris and 0.02 M CaCl2) was utilized as the buffer. BAPNA (from Sigma) was used at 1 mg/ml in 1% DMSO (v/v) deionized water solution as substrate. The same dilutions of structure (13b) were made as for Factor VII assay.

[15] = test system: control plasma; assay: Prothrombin time (PT) in control plasma; format: biochemical
Method: Then 200 μl of prewarmed (at 37° C. for ˜10 minutes) thromboplastin with calcium (from Sigma) was rapidly added into the plasma sample.

[16] = molecular target: T6, FVIIa and TF complex (Homo sapiens, UniProt P08709); assay: Factor VII inhibition assay (IC50, Example 4); format: biochemical
T6 construct: 50 μl of 16 nM FVIIa and TF complex solution
T6 sequence (P08709 213-466 limits assumed): as the sequence (P08709 213-466 limits assumed) above
T6 sequence (P08709 61-212 limits assumed): as the sequence (P08709 61-212 limits assumed) above
T6 sequence (P13726 33-295 partner): as the sequence (P13726 33-295 partner) above
Method: as §2
In the Factor VII assay, S-2288 (from Pharmacia), D-Ile-Pro-Arg-pNA was used at […] in deionized water as substrate. […] This dilution served as the first point of the inhibitor (20 μM). From this concentration point 6 more sequential dilutions were made with a dilution factor of 2. 50 μl of 16 nM FVIIa and TF complex solution and 40 μl of the inhibitor solutions were added into each well, the mixtures were incubated for 20 minutes before 10 μl of 20 mM S-2288 was added.

[17] = molecular target: T2, Tissue Plasminogen Activator (t-PA); assay: Tissue plasminogen activator inhibition assay (IC50, Example 4); format: biochemical
Method: as §2
Buffer, substrate and the dilution scheme of structure (13b) were the same as utilized for Factor VII assay.

[18] = molecular target: T7, bovine factor Xa (Bos taurus, UniProt P00743); assay: Factor X inhibition assay (IC50, Example 4); format: biochemical
T7 construct: 25 nM of bovine factor Xa (from Sigma); purchased Sigma
T7 sequence (P00743 234-492 limits assumed): as the sequence (P00743 234-492 limits assumed) above
T7 sequence (P00743 41-180 limits assumed): as the sequence (P00743 41-180 limits assumed) above
Method: as §2
In the Factor X assay, buffer and substrate are the same as used for thrombin assay. A 1:100 dilution was made into pH 8.4 Tris buffer to serve as the first point. Seven dilutions with a dilution factor of 2 were made. The assay protocol is the same as for thrombin except 25 nM of bovine factor Xa (from Sigma) in pH 8.4 Tris buffer was used instead of thrombin.

[19] = molecular target: T8, human Factor VIIa (FVIIa) and human tissue factor (TF) (Homo sapiens, UniProt P08709); assay: Factor VII assay, hydrolysis of structure (11b) as proteolytic substrate; format: biochemical; settings: ratio of kcat/KM
T8 construct: 10 μl of 20 μM human Factor VIIa (FVIIa)
T8 sequence (P08709 213-466 limits assumed): as the sequence (P08709 213-466 limits assumed) above
T8 sequence (P08709 61-212 limits assumed): as the sequence (P08709 61-212 limits assumed) above
T8 sequence (P13726 33-295 partner): as the sequence (P13726 33-295 partner) above
Method: (§3) Both the thrombin and Factor VII assays of this experiment were carried out at 37° C. using a Hitachi UV/Vis spectrophotometer (model U-3000). Structure (11b) was dissolved in deionized water. The concentration was determined from the absorbance at 342 nm. […] Initial velocities were calculated from the initial linear portion of the reaction progress curve. Kinetic parameters were determined by unweighted nonlinear least-squares fitting of the simple Michaelis-Menten equation to the experimental data using GraFit (Version 3.0, Erithacus Software Limited).
For the Factor VII assay, pH 8.0 Tris buffer (0.05 M Tris, 5 mM CaCl2, 0.15 M NaCl, 0.1% TWEEN 20, 0.1% BSA) was used. 10 μl of 20 μM human Factor VIIa (FVIIa) and 22 μM of human tissue factor (TF) was brought to assay buffer to make 160 nM FVIIa and TF solutions, respectively. […] The initial 3 minutes reaction progress curves were recorded. […] The kcat/KM was calculated from the slope and found to be 17,500 M^−1s^−1.
(§4) In both the thrombin and Factor VII assay of this experiment, (D)FPR-PNA was run as a control.

[20] = molecular target: T9, bovine thrombin (Bos taurus, UniProt P00735); assay: Thrombin assay, hydrolysis of structure (11b) as proteolytic substrate; format: biochemical
T9 construct: 6.4 NIH units of bovine thrombin (from Sigma); purchased Sigma
Method: as §3
For the thrombin assay, experiments were performed in pH 8.4 Tris buffer (Tris, 0.05M; NaCl, 0.15M). 6.4 NIH units of bovine thrombin (from Sigma) were dissolved into 10 ml of the assay buffer to yield 10 nM thrombin solution. […] The first two minutes of the reactions were recorded for initial velocity determination.
as §4

In the case of `N=C(N)NCCC[C@H](NC(=O)[C@@H]1CCN2CC[C@@](N)(Cc3ccccc3)C(=O)N12)C(=O)c1nc2ccccc2s1` [Structure 20b], the half-life ([1]; male, Sprague Dawley, plasma, 4 mg/kg IV) was 450 min, the bioavailability ([1]; male, Sprague Dawley, plasma, 10 mg/kg PO vs 4 mg/kg IV, read-out: bioavailability of orally administered compound) was roughly 27% and the half-life ([1]; male, Sprague Dawley, plasma, 10 mg/kg PO) was 270 min. For the same compound, the “Efficacy parameters aPTT and TT (FIGS. 4A and 4B)” value ([1]; 4 mg/kg IV and 10 mg/kg PO) was “in vivo efficacy”, the pKi [2] was 6.22 and the pKi ([3]; read-out: Ki t-PA) was 6.31. The pKi [4] was 6.02, the pKi [5] was 6.57 and the pKi [6] was 7.57. For the same compound, the pKi [7] was 6.38.
Work on `N=C(N)NCCC[C@H](NC(=O)[C@@H]1CC[C@@H]2CC[C@@](N)(Cc3ccccc3)C(=O)N21)C(=O)c1nc2ccccc2s1` [Structure 29b] yielded a pKi [8] of 5.90, a pKi [2] of 6.47 and a pKi [9] of 8.05. The pKi [10] was 9.70 and 9.64, the pKi ([3]; read-out: Ki t-PA) was 7.03 and the pKi [4] was 7.77. It also gave a pKi [5] of 6.70, a pKi [6] of 7.12 and a pKi [11] of 10.07. For the same compound, the pKi [7] was 6.60.
Compound `N=C(N)NCCC[C@H](NC(=O)[C@@H]1CCCN1C(=O)[C@H](N)Cc1ccccc1)C(=O)CCl` [PPACK, reference compound] has a pIC50 [12] of […], a pIC50 [13] of 6.16 and a pIC50 [14] of 6.67. The PT ([15]; Concentration 500 pM) was 15 s, the PT ([15]; Concentration 1 nM) was 18 s and the PT ([15]; Concentration 10 nM) was 22 s. The PT ([15]; Concentration 20 nM) was 25 s, the PT ([15]; Concentration 40 nM) was 28 s and the PT ([15]; Concentration 60 nM) was 30 s. The PT ([15]; Concentration 80 nM) was 31 s, the pIC50 [16] was 6.70 and the pIC50 [17] was 6.97. The pIC50 [18] was 6.78.
Compound `N=C(N)NCCC[C@H](NC(=O)[C@@H]1CCN2CC[C@@](N)(Cc3ccccc3)C(=O)N12)C(=O)c1nc2ccccc2s1` [20^b] has a pKi [2] of 6.22, a pKi ([3]; read-out: Ki tPA (tissue Plasminogen Activator)) of 6.31 and a pKi [5] of 6.57. The pKi [6] was 7.57 and the pKi [7] was 6.38.
For `N=C(N)NCCC[C@H](NC(=O)[C@@H]1CCN2CC[C@@](N)(Cc3ccccc3)C(=O)N12)C(=O)Nc1ccc([N+](=O)[O-])cc1` [Structure 11b], the “Activity compared to the control (D)FPR-PNA” value [19] was 1.38, the kcat ([20]; substrate hydrolysis, pH 8.4 Tris, 37° C.) was 50 s⁻¹ and the “Activity compared to the control (D)FPR-PNA” value ([20]; thrombin, ratio of kcat/KM) was 0.76.
`N=C(N)NCCC[C@H](NC(=O)[C@@H]1CC[C@@H]2CC[C@](N)(Cc3ccccc3)C(=O)N21)C(=O)c1nc2ccccc2s1` [Structure 29a] showed a pKi [10] of 9.27, a pKi [4] of 5.34 and a pKi [5] of 5.74. For the same compound, the pKi [6] was 6.41 and the pKi [11] was 7.98.
